# Reference: US20110009435A1, “HETERO BICYCLIC CARBOXAMIDE DERIVATIVES AND THEIR PHARMACEUTICAL USE AND COMPOSITIONS” (Pfizer, Inc., priority 2007, published 2011)
# Legend:
# Type in all cases: biochemical
# [1] = target: T1, catalytic domain of human recombinant MMP-3 (Homo sapiens, UniProt P08254); assay: In vitro MMP inhibition assay, MMP-3 catalytic domain (fluorogenic peptide substrate cleavage, Ki); details: human MMP-3, catalytic domain (CD); read-out: hMMP Ki 03/CD
# T1 construct: made in house
# T1 sequence (P08254 100-272 limits assumed): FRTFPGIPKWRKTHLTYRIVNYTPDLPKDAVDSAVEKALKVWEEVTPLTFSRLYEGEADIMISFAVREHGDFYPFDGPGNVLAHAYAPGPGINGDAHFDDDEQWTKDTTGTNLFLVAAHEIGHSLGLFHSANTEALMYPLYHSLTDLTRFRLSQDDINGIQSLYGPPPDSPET
# Description: (§1) Matrix Metalloproteinase inhibitor compounds were analyzed in in vitro MMP Inhibition assays to determine their ability to inhibit the MMP cleavage of peptide substrates. Inhibition constants (Ki) were calculated from the assayed compound-MMP interactions.
# (§2) Human recombinant MMP-1, MMP-2, MMP-3, MMP-7, MMP-9, MMP-12, MMP-13, MMP-14 and MMP-15 were used in these assays. The enzymes are prepared following known laboratory procedures. Protocols for the preparation and use of these enzymes are available in the scientific literature. See, e.g., Enzyme Nomenclature (Academic Press, San Diego, Calif., 1992) and the citations therein. See also Frije et al., J. Biol. Chem., 26(24), 16766-73 (1994).
# The catalytic domain MMP-3 cDNA may be used to express the catalytic domain enzyme in E. coli inclusion bodies. Then the enzyme is solubilized in urea, purified on a preparative […] reverse phase HPLC column, and refolded in the presence of zinc acetate and purified for use.
# The fluorogenic, methoxycoumarin-containing polypeptide substrate Mca-Arg-Pro-Lys-Pro-Val-Glu-Nva-Trp-Arg-Lys(Dnp)-NH2 (Bachem catalog number M-2110) was used as the MMP substrate in the MMP inhibition assays for catalytic domain of human recombinant MMP-3 (which refers to the catalytic domain of stromelysin). Here, “MCA” is 7-methoxycoumarin-4-yl acetyl and “Dpa” is 3-(2,4-dinitrophenyl)-L-2,3-di-aminopropionyl group. In the absence of MMP inhibitory activity, the substrate is cleaved at the Gly-Leu peptide bond. The cleavage separates the highly fluorogenic peptide from the 2,4-dinitrophenyl quencher, resulting in an increase of fluorescent intensity.
# For the human MMP-3 assay, dilutions of the inhibitors (or salts thereof) were prepared in 100% DMSO. The stock solutions were diluted in Buffer B (50 mM N-morpholinoethane sulfonate (“MES”), 100 mM NaCl, 10 mM CaCl2, 0.005% polyoxyethylene 23 lauryl ether, pH 6.0)) to obtain solutions with different compound concentrations, i.e., assay solutions with different concentrations of the assayed MMP inhibitory compound in 1% DMSO. The experiment controls contained the same amount of Buffer B/DMSO as the assayed sample, but contained no inhibitor.
# (§3) To determine Ki, the inhibitor samples are incubated at room temperature for 1 hr in the presence of enzyme and then 4 μM of appropriate MMP substrate was added, and samples were analyzed on a Tecan SpectraFlour Plus plate reader. The excitation wavelength is 330 nm, and the emission (fluorescence) wavelength is 420 nm. In the absence of MMP inhibitory activity, the substrate is cleaved at the Gly-Leu bond resulting in an increase of relative fluorescence. Inhibition is observed as a reduced rate of increase in relative fluorescence.
# (§4) The inhibitors are analyzed using a single low enzyme concentration with a single substrate concentration fixed at or below the Km. This protocol is a modification of method by Knight et al., FEBS Lett., 296(3), 263-266 (1992). Apparent inhibitory constants are determined by non-linear regression of reaction velocity as a function of inhibitor and enzyme concentration using Morrison's equation, as described by Kuzmic, Anal. Biochem. 286, 45-50 (2000). Modifications were made in the non-linear regression method to allow a common control reaction rate and effective enzyme concentration to be shared between all dose-response relationships on a given assay plate. Since the substrate concentration was chosen to be at or below the Km, the apparent Ki's from this analysis were reported as Ki's without correction for the influence of substrate.
# Human recombinant MMP-12 = target: T2, Human recombinant MMP-12 (Homo sapiens, UniProt P39900); assay: In vitro MMP inhibition assay, MMP-12 catalytic domain (fluorogenic peptide substrate cleavage, Ki); details: human MMP-12, catalytic domain (CD); read-out: hMMP Ki 12/CD
# T2 construct: The catalytic domain of MMP-12 and MMP-15 enzymes were purchased commercially for these assays; purchased
# T2 sequence (P39900 106-263 limits assumed): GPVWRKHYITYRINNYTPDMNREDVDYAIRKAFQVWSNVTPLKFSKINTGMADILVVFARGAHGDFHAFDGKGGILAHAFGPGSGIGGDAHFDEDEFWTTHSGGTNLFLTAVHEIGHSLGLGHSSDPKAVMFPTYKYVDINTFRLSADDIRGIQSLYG
# Description: as §1, §2
# (§5) The catalytic domain of MMP-12 and MMP-15 enzymes were purchased commercially for these assays.
# (§6) The fluorogenic, methoxycoumarin-containing polypeptide substrate MCA-ArgProLeuGlyLeuDpaAlaArgGluArgNH2 was used as the MMP substrate in the MMP inhibition assays for human recombinant MMP-1, MMP-2, MMP-7, MMP-9, MMP-12, MMP-13, MMP-14 and MMP-15. Here, “MCA” is 7-methoxycoumarin-4-yl acetyl and “Dpa” is 3-(2,4-dinitrophenyl)-L-2,3-di-aminopropionyl group. In the absence of MMP inhibitory activity, the substrate is cleaved at the Gly-Leu peptide bond. The cleavage separates the highly fluorogenic peptide from the 2,4-dinitrophenyl quencher, resulting in an increase of fluorescent intensity.
# (§7) For the human MMP-1, MMP-2, MMP-7, MMP-9, MMP-12, MMP-13, MMP-14 and MMP-15 assays, dilutions of the inhibitors (or salts thereof) were prepared in 100% dimethyl sulfoxide (DMSO). The stock solutions were diluted in Buffer A (100 mM Tris-HCl, 100 mM NaCl, 10 mM CaCl2, 0.005% polyoxyethylene 23 lauryl ether, pH 7.5) to obtain solutions with different compound concentrations, i.e., assay solutions with different concentrations of the assayed MMP inhibitory compound in 1% DMSO. The experiment controls contained the same amount of Buffer A/DMSO as the assayed sample, but contained no inhibitor.
# as §3, §4
# Human recombinant MMP-13 = target: T3, Human recombinant MMP-13 (Homo sapiens, UniProt P45452); assay: In vitro MMP inhibition assay, MMP-13 (fluorogenic peptide substrate cleavage, Ki); details: human MMP-13, full length (FL); read-out: hMMP Ki 13/FL
# T3 construct: made in house; host or cells: baculovirus expression (insect cells)
# Description: as §1, §2
# The MMP-13 may be obtained as a proenzyme from a full-length cDNA clone using baculovirus expression, as described by V. A. Luckow, “Insect Cell Expression Technology,” Protein Engineering: Principles and Practice, pp. 183-218 (edited by J. L. Cleland et al., Wiley-Liss, Inc., 1996). The expressed proenzyme was first purified over a heparin agarose column, and then over a chelating zinc chloride column. Further details on baculovirus expression systems may be found in, for example, Luckow et al., J. Virol., 67, 4566-79 (1993). See also O'Reilly et al, Baculovirus Expression Vectors: A Laboratory Manual (W. H. Freeman and Co., New York, N.Y., 1992). See also King et al., The Baculovirus Expression System: A Laboratory Guide (Chapman & Hall, London, England, 1992).
# All full length MMPs were activated using 4-aminophenylmercuric acetate (“APMA”, Sigma Chemical, St. Louis, Mo.) or trypsin. MMP-9 also was activated using human recombinant MMP-3 following standard cloning and purification techniques.
# as §6, §7, §3
# The inhibitors are analyzed using a single low enzyme concentration with a single substrate concentration fixed at or below the Km. This protocol is a modification of method by Knight et al., FEBS Lett., 296(3), 263-266 (1992). Apparent inhibitory constants are determined by non-linear regression of reaction velocity as a function of inhibitor and enzyme concentration using Morrison's equation, as described by Kuzmic, Anal. Biochem. 286, 45-50 (2000). […]
# Human recombinant MMP-14 = target: T4, Human recombinant MMP-14 (Homo sapiens, UniProt P50281); assay: In vitro MMP inhibition assay, MMP-14 catalytic domain (fluorogenic peptide substrate cleavage, Ki); details: human MMP-14, catalytic domain (CD); read-out: hMMP Ki 14/CD
# T4 construct: The MMP-14 cDNA may be used to express the catalytic domain enzyme in E. coli inclusion bodies; made in house
# Description: as §1, §2
# The MMP-14 cDNA may be used to express the catalytic domain enzyme in E. coli inclusion bodies. Then the enzyme is solubilized in urea, purified on a preparative […] reverse phase HPLC column, and refolded in the presence of zinc acetate and purified for use.
# as §6, §7, §3
# as §4, with “Since the substrate concentration was chosen to be at or below the Km, the apparent Ki's from this analysis were reported as Ki's without correction for the influence of substrate.” left out
# Human recombinant MMP-15 = target: T5, Human recombinant MMP-15 (Homo sapiens, UniProt P51511); assay: In vitro MMP inhibition assay, MMP-15 catalytic domain (fluorogenic peptide substrate cleavage, Ki); details: human MMP-15, catalytic domain (CD); read-out: hMMP Ki 15/CD
# T5 construct: The catalytic domain of MMP-12 and MMP-15 enzymes were purchased commercially for these assays; purchased
# T5 sequence (P51511 132-304 limits assumed): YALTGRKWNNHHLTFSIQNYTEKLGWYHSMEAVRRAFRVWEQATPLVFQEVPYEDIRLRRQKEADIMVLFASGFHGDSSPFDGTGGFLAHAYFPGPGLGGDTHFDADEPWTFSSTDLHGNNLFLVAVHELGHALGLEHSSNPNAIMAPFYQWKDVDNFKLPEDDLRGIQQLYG
# Description: as §1, §2, §5, §6, §7, §3, §4
Ki [1],Ki (Human recombinant MMP-12),Ki (Human recombinant MMP-13),Ki (Human recombinant MMP-14),Ki (Human recombinant MMP-15),Structure (SMILES)
1000 nM,> 10000 nM,0.732 nM,> 10000 nM,> 10000 nM,"COc1cc(CNC(=O)c2nc3scc(COC[C@H]4CC[C@H](NS(C)(=O)=O)CC4)c3c(=O)[nH]2)ccc1F [Example 18, N-(4-Fluoro-3-methoxybenzyl)-5-[({trans-4-[(methylsulfonyl)amino]cyclohexyl}methoxy)methyl]-4-oxo-3,4-dihydrothieno[2,3-d]pyrimidine-2-carboxamide]"
1220 nM,> 10000 nM,2.48 nM,> 10000 nM,> 10000 nM,"COc1cc(CNC(=O)c2nc3scc(COC[C@H]4CC[C@H](NC(C)=O)CC4)c3c(=O)[nH]2)ccc1F [Example 19, 5-({[trans-4-(Acetylamino)cyclohexyl]methoxy}methyl)-N-(4-fluoro-3-methoxybenzyl)-4-oxo-3,4-dihydrothieno[2,3-d]pyrimidine-2-carboxamide]"
960 nM,,4.04 nM,,,"COc1cc(CNC(=O)c2nc3scc(COC[C@@H]4CO[C@@H](C(N)=O)CO4)c3c(=O)[nH]2)ccc1F (relative stereo) [Example 15, N-(4-Fluoro-3-methoxybenzyl)-5-(((trans-5-carbamoyl-1,4-dioxan-2-yl)methoxy)methyl)-4-oxo-3,4-dihydrothieno[2,3-d]pyrimidine-2-carboxamide]"
163 nM,,0.143 nM,,,"COc1cc(CNC(=O)c2nc3scc(COC[C@H]4CC[C@H](C(=O)O)CC4)c3c(=O)[nH]2)ccc1F [Example 10, Trans-4-(((2-((4-Fluoro-3-methoxybenzyl)carbamoyl)-4-oxo-3,4-dihydrothieno[2,3-d]pyrimidin-5-yl)methoxy)methyl)cyclohexanecarboxylic acid]"
8580 nM,,16.4 nM,,,"COc1cccc(CNC(=O)c2nc3ccc(F)c(OC[C@H]4CO[C@H](CO)CO4)c3c(=O)[nH]2)c1 (relative stereo) [Example 3, 6-Fluoro-5-{[(trans-2,5)-5-(hydroxymethyl)-1,4-dioxan-2-yl]methoxy}-N-(3-methoxybenzyl)-4-oxo-3,4-dihydroquinazoline-2-carboxamide]"
337 nM,,0.471 nM,,,"COc1cccc(CNC(=O)c2nc3scc(COC[C@H]4CC[C@H](CO)CC4)c3c(=O)[nH]2)c1 [Example 4, N-(3-methoxybenzyl)-5-(((trans-4-(hydroxymethyl)cyclohexyl)methoxy)methyl)-4-oxo-3,4-dihydrothieno[2,3-d]pyrimidine-2-carboxamide]"
663 nM,,11 nM,,,"COc1cc(CNC(=O)c2nc3scc(COC[C@@H]4CO[C@@H](CO)CO4)c3c(=O)[nH]2)ccc1F (relative stereo) [Example 11, N-(4-Fluoro-3-methoxybenzyl)-5-(((trans-5-(hydroxymethyl)-1,4-dioxan-2-yl)methoxy)methyl)-4-oxo-3,4-dihydrothieno[2,3-d]pyrimidine-2-carboxamide]"

# More lines, now with the values behind:
Structure (SMILES),Ki [1],Ki (Human recombinant MMP-12),Ki (Human recombinant MMP-13),Ki (Human recombinant MMP-14),Ki (Human recombinant MMP-15)
"COc1cccc(CNC(=O)c2nc3scc(COC[C@H]4CC[C@H](NS(C)(=O)=O)CC4)c3c(=O)[nH]2)c1 [Example 16, N-(3-Methoxybenzyl)-5-[({trans-4-[(methylsulfonyl)amino]cyclohexyl}methoxy)methyl]-4-oxo-3,4-dihydrothieno[2,3-d]pyrimidine-2-carboxamide]",533 nM,,0.41 nM,,
"COc1cccc(CNC(=O)c2nc3scc(COC[C@H]4CC[C@H](C(=O)O)CC4)c3c(=O)[nH]2)c1 [Example 5, Trans-4-(((2-((3-Methoxybenzyl)carbamoyl)-4-oxo-3,4-dihydrothieno[2,3-d]pyrimidin-5-yl)methoxy)methyl)cyclohexanecarboxylic acid]",389 nM,,0.221 nM,,
"COc1cccc(CNC(=O)c2nc3scc(COC[C@H]4CC[C@H](CNS(C)(=O)=O)CC4)c3c(=O)[nH]2)c1 [Example 25, N-(3-methoxybenzyl)-5-[({trans-4-[(methylsulfonyl)aminomethyl]cyclohexyl}methoxy)methyl]-4-oxo-3,4-dihydrothieno[2,3-d]pyrimidine-2-carboxamide]",512 nM,,0.566 nM,,
"COc1cccc(CNC(=O)c2nc3scc(COCCC4CCN(C(C)=O)CC4)c3c(=O)[nH]2)c1 [Example 28, 5-([2-(1-Acetylpiperidin-4-yl)ethoxy]methyl)-N-(3-methoxybenzyl)-4-oxo-3,4-dihydrothieno[2,3-d]pyrimidine-2-carboxamide]",787 nM,,3.13 nM,,
"COc1cccc(CNC(=O)c2nc3scc(COC[C@H]4CC[C@H](NC(=O)CO)CC4)c3c(=O)[nH]2)c1 [Example 21, N-(3-Methoxybenzyl)-5-((((trans-1,4)-4-(2-hydroxyacetamido)cyclohexyl)methoxy)methyl)-4-oxo-3,4-dihydrothieno[2,3-d]pyrimidine-2-carboxamide]",672 nM,,1.25 nM,,
